Reference: publication PMC6270011, “Design and Synthesis of Arylthiophene-2-Carbaldehydes via Suzuki-Miyaura Reactions and Their Biological Evaluation” (Molecules, 2013)
In brackets after ≈: the same amount, converted by molar mass. Where two headings read alike, the source gives them in different places.

Assays:
Bacillus subtilis = experiment: Antibacterial activity (disc / inhibition zone) against Bacillus subtilis; details: read-out: Inhibition zone, B. subtilis
[1] = system: human red blood cells (erythrocytes); format: cell-based
Procedure: Three mL of freshly obtained human blood was placed in heparinized tubes to avoid coagulation, gently mixed and poured into a sterile 15 mL Falcon tube and centrifuged for 5 min at 1,000 ×g. The supernatant was discarded and red blood cells were washed three times with chilled (4 °C) sterile isotonic phosphate buffer saline pH 7.4 (5 mL). Erythrocytes (10^8 cells/mL) were maintained for each assay by dilution with phosphate buffer saline. Erythrocytes were counted on a heamacytometer. Twenty µL of each compound was mixed with red blood cells suspension (180 μL) separately. The samples were incubated at 37 °C for 35 min. The samples were placed on ice for 5 min and then agitated at 1,000 ×g for 5 min. Supernatant (100 µL) were taken from each tube and diluted 10 times with chilled (4 °C) phosphate buffered saline. Triton X-100 (0.1% v/v) was taken as a positive control and PBS was negative control and then subjected to the same process. […] The percentage RBSs lyses for each sample was calculated.

[2] = Nitric oxide (NO) scavenging assay; format: biochemical
Text: Nitric oxide (NO) is a free radical causing inflammatory disorders and cancer in the human body when sodium nitroprusside decomposes to produce nitric oxide. The antioxidant activity of various thiophene derivatives has been reported in the literature and it has also been observed that compounds with high antioxidant activity served as antitumor agents. The newly synthesized compounds reacted directly with nitric oxide and inhibited nitrite formation in an excellent way.
The reaction mixtures comprising sample solution (2 µL), phosphate buffer (17 µL) and sodium nitroprusside (20 µL) were incubated at 37 °C for 2 h in well plates. Then Griess reagent (20 µL, 0.3% sulphanilic acid in glacial acetic acid + 0.1% naphthylethylenediamine (NED): equal volumes of both solutions mixed just before use) was added to each well plate and the mixture kept at room temperature for 20 min to develop the color. The absorbance was measured at 528 nm by using an ELISA reader. The results were processed using Gen 5 software. All the reactions were performed in triplicate. Positive control (containing known antioxidant) and control (containing all samples) were run in parallel. Negative control was used to calibrate the instrument. The % age antioxidant activity was determined by using the following formula: % antioxidant activity = [(Absorbance of control − absorbance of sample)/(Absorbance of control)] × 100

Salmonella typhi = experiment: Antibacterial activity (disc / inhibition zone) against Salmonella typhi; details: Salmonella enterica; for zone of inhibition at 25 µg/mL / zone of inhibition at 50 µg/mL: read-out: Inhibition zone, S. typhi
Escherichia coli = experiment: Antibacterial activity (disc / inhibition zone) against Escherichia coli; details: read-out: Inhibition zone, E.coli
Staphylococcus aureus = experiment: Antibacterial activity (disc / inhibition zone) against Staphylococcus aureus; details: read-out: Inhibition zone, S. aureus
Pseudomonas aeruginosa = experiment: Antibacterial activity (disc / inhibition zone) against Pseudomonas aeruginosa; details: for IC50: read-out: IC50 against Pseudomonas aeruginosa; for zone of inhibition at 25 µg/mL / zone of inhibition at 50 µg/mL: read-out: Inhibition zone, P. aeruginosa
Shigella dysenteriae = experiment: Antibacterial activity (disc / inhibition zone) against Shigella dysenteriae; details: read-out: Inhibition zone, S. dysenteriae
[3] = human erythrocytes, 37 °C, 35 min
[4] = 25 µg/mL, read-out: % Activity at 25 µg (NO scavenging)
[5] = 50 µg/mL, read-out: % Activity at 50 µg (NO scavenging)
[6] = 100 µg/mL, read-out: % Activity at 100 µg (NO scavenging)

Molecule: N#Cc1cc(-c2csc(C=O)c2)cc(C(F)(F)F)c1 [2d, 3-(5-Formylthiophene-3-yl)-5-(trifloromethyl)benzonitrile]
- zone of inhibition at 25 µg/mL (Bacillus subtilis): 28.3 ± 0.75 mm
- zone of inhibition at 50 µg/mL (Bacillus subtilis): 58 ± 0.35 mm
- Haemolytic activity, in words [1]: lowest haemolytic property
- Haemolytic activity, percentage of lysis (Average ± SD) [1, 3]: 3.306 ± 0.058%
- IC50 (NO scavenging) [2]: 45.6 µg/mL (≈ 162 µM)
- inhibition [2, 4]: 12 ± 0.025%
- inhibition [2, 5]: 58 ± 0.01%
- inhibition [2, 6]: 73 ± 0.0028%
- melting point: 252 to 254 °C
- zone of inhibition at 25 µg/mL (Salmonella typhi): 30 ± 0.15 mm
- zone of inhibition at 50 µg/mL (Salmonella typhi): 64 ± 0.05 mm
- zone of inhibition at 25 µg/mL (Escherichia coli): 32.5 ± 0.12 mm
- zone of inhibition at 50 µg/mL (Escherichia coli): 40.5 ± 0.19 mm
- zone of inhibition at 25 µg/mL (Staphylococcus aureus): 33 ± 0.01 mm
- zone of inhibition at 50 µg/mL (Staphylococcus aureus): 63 ± 0.31 mm
- IC50 (Pseudomonas aeruginosa): 29.7 µg/mL (≈ 106 µM)
- zone of inhibition at 25 µg/mL (Pseudomonas aeruginosa): 46 ± 0.02 mm
- zone of inhibition at 50 µg/mL (Pseudomonas aeruginosa): 67 ± 0.01 mm
- zone of inhibition at 25 µg/mL (Shigella dysenteriae): 35 ± 0.15 mm
- zone of inhibition at 50 µg/mL (Shigella dysenteriae): 63 ± 0.31 mm

Molecule: Triton X-100 [Triton-X 100, reference compound]
- Haemolytic activity, percentage of lysis (Average ± SD) [1]: 99.824 ± 0.536%

Molecule: [H]/N=C(/N)N[C@H]1[C@H](O)[C@@H](O)[C@H](O[C@@H]2O[C@@H](C)[C@](O)(C=O)[C@H]2O[C@@H]2O[C@@H](CO)[C@H](O)[C@@H](O)[C@@H]2NC)[C@@H](N/C(N)=N\[H])[C@@H]1O [Streptomycin, streptomycin, reference compound]
- zone of inhibition at 25 µg/mL (Bacillus subtilis): 34 ± 0.015 mm
- zone of inhibition at 50 µg/mL (Bacillus subtilis): 53 ± 0.001 mm
- zone of inhibition at 25 µg/mL (Salmonella typhi): 33 ± 0.001 mm
- zone of inhibition at 50 µg/mL (Salmonella typhi): 53 ± 0.001 mm
- zone of inhibition at 25 µg/mL (Escherichia coli): 29.3 ± 0.002 mm
- zone of inhibition at 50 µg/mL (Escherichia coli): 63 ± 0.002 mm
- zone of inhibition at 25 µg/mL (Staphylococcus aureus): 15 ± 0.034 mm
- zone of inhibition at 50 µg/mL (Staphylococcus aureus): 55 ± 0.03 mm
- IC50 (Pseudomonas aeruginosa): 35.2 µg/mL (≈ 60.5 µM)
- zone of inhibition at 25 µg/mL (Pseudomonas aeruginosa): 41.5 ± 0.002 mm
- zone of inhibition at 50 µg/mL (Pseudomonas aeruginosa): 63 ± 0.002 mm
- zone of inhibition at 25 µg/mL (Shigella dysenteriae): 48 ± 0.05 mm
- zone of inhibition at 50 µg/mL (Shigella dysenteriae): 55 ± 0.034 mm

Molecule: O=Cc1cc(-c2ccc(Cl)c(Cl)c2)cs1 [2h, 4-(3,4-Dichlorophenyl)thiophene-2-carbaldehyde]
- zone of inhibition at 25 µg/mL (Bacillus subtilis): 28 ± 0.03 mm
- zone of inhibition at 50 µg/mL (Bacillus subtilis): 58 ± 0.22 mm
- Haemolytic activity, percentage of lysis (Average ± SD) [1, 3]: 3.487 ± 0.054%
- inhibition [2, 4]: 13 ± 0.002%
- inhibition [2, 5]: 20 ± 0.025%
- inhibition [2, 6]: 35 ± 0.077%
- melting point: 158 to 160 °C
- zone of inhibition at 25 µg/mL (Salmonella typhi): 30 ± 0.13 mm
- zone of inhibition at 50 µg/mL (Salmonella typhi): 57 ± 0.01 mm
- zone of inhibition at 25 µg/mL (Escherichia coli): 32 ± 0.03 mm
- zone of inhibition at 50 µg/mL (Escherichia coli): 60 ± 0.24 mm
- zone of inhibition at 25 µg/mL (Staphylococcus aureus): 39.4 ± 0.05 mm
- zone of inhibition at 50 µg/mL (Staphylococcus aureus): 59.4 ± 0.45 mm
- zone of inhibition at 25 µg/mL (Pseudomonas aeruginosa): 40 ± 0.041 mm
- zone of inhibition at 50 µg/mL (Pseudomonas aeruginosa): 67 ± 0.021 mm
- zone of inhibition at 25 µg/mL (Shigella dysenteriae): 29 ± 0.19 mm
- zone of inhibition at 50 µg/mL (Shigella dysenteriae): 59.4 ± 0.45 mm

Molecule: O=C1O[C@H]([C@@H](O)CO)C(O)=C1O [Ascorbic Acid, ascorbic acid, reference compound]
- inhibition [2, 4]: 40 ± 0.038%
- inhibition [2, 5]: 61 ± 0.004%
- inhibition [2, 6]: 77 ± 0.001%

Molecule: COc1ccc(-c2csc(C=O)c2)cc1 [2f, 4-(4-Methoxyphenyl)thiophene-2-carbaldehyde]
- zone of inhibition at 25 µg/mL (Bacillus subtilis): 24.4 ± 0.03 mm
- zone of inhibition at 50 µg/mL (Bacillus subtilis): 54 ± 0.23 mm
- Haemolytic activity, in words [1]: highest haemolytic action
- Haemolytic activity, percentage of lysis (Average ± SD) [1, 3]: 6.083 ± 0.143%
- inhibition [2, 4]: 5 ± 0.005%
- inhibition [2, 5]: 10 ± 0.028%
- inhibition [2, 6]: 25 ± 0.005%
- melting point: 68 to 70 °C
- IC50 (Salmonella typhi; read-out: IC50 against Salmonella typhi): 37.9 µg/mL (≈ 174 µM)
- zone of inhibition at 25 µg/mL (Salmonella typhi): 36 ± 0.01 mm
- zone of inhibition at 50 µg/mL (Salmonella typhi): 63 ± 0.11 mm
- zone of inhibition at 25 µg/mL (Escherichia coli): 9 ± 0.03 mm
- zone of inhibition at 50 µg/mL (Escherichia coli): 8 ± 0.01 mm
- zone of inhibition at 25 µg/mL (Staphylococcus aureus): 34 ± 0.05 mm
- zone of inhibition at 50 µg/mL (Staphylococcus aureus): 61.4 ± 0.56 mm
- zone of inhibition at 25 µg/mL (Pseudomonas aeruginosa): 34 ± 0.04 mm
- zone of inhibition at 50 µg/mL (Pseudomonas aeruginosa): 64 ± 0.04 mm
- zone of inhibition at 25 µg/mL (Shigella dysenteriae): 42 ± 0.7 mm
- zone of inhibition at 50 µg/mL (Shigella dysenteriae): 61.4 ± 0.56 mm
